Consider nine compounds from patent US20220089646A1 (THE UNIVERSITY OF QUEENSLAND, priority 2019, published 2022).

“Also recorded” adds a separate entry of the source. *1 amine or outer side, *2 acyl side, *3 side chain or, on linkers, in order; H or OH if unused. Where a SMILES comes first, the peptide text is derived from it. Bridges are numbered along the chain shown (N, C = ends). [ ]: non-standard residue; d: D form. ξ: configuration not given here. Phe(4-NO2) = N[C@@H](Cc1ccc([N+](=O)[O-])cc1)C(=O)O; Phe(4-Cl) = N[C@@H](Cc1ccc(Cl)cc1)C(=O)O; NHCH2CMe2S = CC(C)(CN[*:1])S[*:2]; NMeR = CN[C@@H](CCCNC(=N)N)C(=O)O; X1 = CC(C)(CN[*:2])S[*:1]; ξC = NC(CS)C(=O)O; Sar = CNCC(=O)O

Data set [1] concerns bovine pancreatic trypsin. Description: bovine pancreatic trypsin 2.5 μg/mL in NH4HCO3 buffer, pH approx. 8-8.5. Particulars: 37° C., up to 120 min.
Data set [2] relates to trypsin. In words: stock trypsin solution (1 mg trypsin in 50 mL of 0.1 M NH4HCO3 buffer). Particulars: 37° C., up to 24 hours.
Data set [3] in a line: Plasma stability assay (Table 10). Particulars: 37° C., 100 uM peptide, One Phase Decay, read-out: Stability (t1/2, mins) Plasma; for half-life at 100 uM: both sexes, Wistar, rat plasma (EDTA); for half-life: rat plasma. Type of data set: in vitro ADME. The source says:
(§1) FIG. 20 is a series of graphs showing the stability of selected peptides in a trypsin (left-hand graphs) and plasma (right-hand graphs) stability assay (data normalised to concentration of each peptide at t=0, determined by LCMS, within each substrate; data analysed using One Phase Decay nonlinear regression in Prism software and each experiment performed in triplicate; mean+/−SEM);
(§2) The results shown in Table 10 utilized rat plasma. • Note that DP-7-11 and CP5 represent the same compound, and DP-7-12 and CP6 are the same compound. In this regard, a different regression analysis method was adopted on the above cAMP experiments. Particularly, a new non-linear regression (four-parameter) was adopted to better account for hill slope, thereby improving the regression fit.
(§3) Plasma was collected in house from adult mixed-gender Wistar rats, prepared using 2% EDTA as per standard practice. Peptides were added to rat plasma samples at 37° C. (in a water bath) with final concentrations of 100 uM (1:9 peptide in water:plasma) and a 50 μL sample was immediately taken and precipitated in 150 μL cold acetonitrile (9:1 ACN:water). This sample became the baseline, or t=0 min sample. Plasma with peptide was immediately returned to the water bath and subsequent 50 μL samples were taken at 5, 10, 15, 30, 60 and 120 min. At each time point, the 50 μL of plasma collected was immediately added to cold ACN. Each collected plasma sample in ACN was directly vortexed for 30 seconds and then centrifuged at room temperature (13K rpm, 5 min). 150 μL of the supernatant was taken and directly placed in glass HPLC vials for LCMS analysis.

In data set [4] the target is KOP (Homo sapiens, UniProt P41145). In words: In vitro cAMP activity at KOP (Table 10). Type of data set: cell-based. Particulars: cAMP inhibition, four-parameter regression, normalised to U50488H. Here is the method: (§4) The CP series compounds were assayed as follows: The assay was performed using a 96 well ½ area plate. The different cAMP standard solutions (3 μL/well) were plated in duplicate. The different concentrations of drug (3 μL/well), and control solutions (3 μL/well) were plated in triplicate. Following this, the acceptor bead mixture (3 μL/well) was added to the respective sets—either cAMP standard curve or the treatment. This was covered and incubated on the orbital shaker for 60 minutes at 37° C. Then, the donor bead mixture (10 μL/well) was added to each well. This was incubated at room temperature overnight on the orbital shaker.
(§5) For DP-11-06 the assay was carried out in the same way as for the CP compounds except it was incubated for 30 mins at 37° C.
(§6) For the CP series compounds and DP-11-06, the Ensight® Multimode Plate Reader was used to quantify the fluorescence units of each plate. Before reading, each plate was centrifuged at 280 g for 30 seconds. Using GraphPad Prism7® Software, cAMP concentrations were determined by fit spline/LOWESS analysis. The cAMP standard curve was used for interpolation at this point. The cAMP concentrations were then normalized to the highest cAMP concentration recorded and analyzed by one-way ANOVA for multiple comparisons. The IC50 for each compound was then calculated using GraphPad Prism7® with non-linear regression analysis using four parameter curve fitting.
as §2

Data set [5] has as its target MOP (Homo sapiens, UniProt P35372). In words: In vitro cAMP activity at MOP (Table 10). Particulars: cAMP inhibition, four-parameter regression. In kind it is cell-based. Here is the method:
as §4, §5, §6
(§7) In this regard, a different regression analysis method was adopted on the above cAMP experiments. Particularly, a new non-linear regression (four-parameter) was adopted to better account for hill slope, thereby improving the regression fit.

The nature of data set [6]: Stability in cAMP buffer. Particulars: over 60 minutes. In kind it is physicochemical. The source says: Select compounds were also screened for stability in cAMP buffer, to assess whether they degrade spontaneously in the cell assay environment, in the absence of cellular metabolic processes.
In data set [7] the target is T1, bovine pancreatic trypsin (Bos taurus, UniProt P00760).
T1 construct: from tissue; host or cells: bovine pancreas
T1 sequence (P00760 24-246): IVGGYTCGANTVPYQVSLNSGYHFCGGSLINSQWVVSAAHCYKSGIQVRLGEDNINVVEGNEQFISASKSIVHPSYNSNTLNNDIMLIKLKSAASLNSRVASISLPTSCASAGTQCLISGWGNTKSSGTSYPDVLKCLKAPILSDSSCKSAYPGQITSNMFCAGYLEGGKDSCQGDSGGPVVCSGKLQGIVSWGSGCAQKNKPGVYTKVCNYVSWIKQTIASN
Description: Trypsin stability assay (Table 10). Type of data set: in vitro ADME. Particulars: for half-life at 100 uM: bovine pancreatic trypsin solution; for half-life at 100 uM / half-life: bovine pancreatic trypsin 2.5 μg/mL, 37° C., One Phase Decay, read-out: Stability (t1/2, mins) Trypsin; for Degradation in trypsin: over the 120 minute assay.
Source text: as §1
as §3, with “Plasma with peptide was immediately returned to the water bath and subsequent 50 μL samples were taken at 5, 10, 15, 30, 60 and 120 min.” left out
The protocol for the trypsin stability assay was very similar to the plasma stability assay discussed above. The only difference was the use of a trypsin solution (bovine pancreatic trypsin 2.5 μg/mL in NH4HCO3 buffer, pH approx. 8-8.5, 37° C.) instead of rat plasma. Volumes, times and preparation protocols were exactly as mentioned above.

The target in data set [8] is DOP (Homo sapiens, UniProt P41143). Description: In vitro cAMP activity at DOP (Table 10). Particulars: cAMP inhibition, four-parameter regression. In kind it is cell-based. Here is the method: as §4, §5, §6, §7
Chain of DOP (P41143 whole entry): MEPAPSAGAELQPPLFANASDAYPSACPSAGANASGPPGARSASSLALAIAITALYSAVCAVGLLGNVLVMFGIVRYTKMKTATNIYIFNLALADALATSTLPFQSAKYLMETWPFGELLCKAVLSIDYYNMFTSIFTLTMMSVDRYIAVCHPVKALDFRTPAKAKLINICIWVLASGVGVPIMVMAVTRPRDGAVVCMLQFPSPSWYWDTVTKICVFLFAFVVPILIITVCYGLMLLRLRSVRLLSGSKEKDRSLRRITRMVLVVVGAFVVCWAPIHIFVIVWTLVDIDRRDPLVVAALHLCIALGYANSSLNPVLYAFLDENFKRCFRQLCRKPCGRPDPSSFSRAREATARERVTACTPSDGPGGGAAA

Chain of MOP (P35372 whole entry): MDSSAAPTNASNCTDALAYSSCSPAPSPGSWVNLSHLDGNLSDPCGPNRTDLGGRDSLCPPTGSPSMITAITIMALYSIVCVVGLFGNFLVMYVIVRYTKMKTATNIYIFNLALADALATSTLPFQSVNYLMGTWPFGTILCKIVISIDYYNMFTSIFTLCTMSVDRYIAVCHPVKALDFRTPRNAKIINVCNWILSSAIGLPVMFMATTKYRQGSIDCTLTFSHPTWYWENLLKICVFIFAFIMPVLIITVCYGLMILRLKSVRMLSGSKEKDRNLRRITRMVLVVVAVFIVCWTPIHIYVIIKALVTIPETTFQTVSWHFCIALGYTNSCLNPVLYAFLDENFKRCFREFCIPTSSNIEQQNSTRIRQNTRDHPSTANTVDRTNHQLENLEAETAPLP
Chain of KOP (P41145 whole entry): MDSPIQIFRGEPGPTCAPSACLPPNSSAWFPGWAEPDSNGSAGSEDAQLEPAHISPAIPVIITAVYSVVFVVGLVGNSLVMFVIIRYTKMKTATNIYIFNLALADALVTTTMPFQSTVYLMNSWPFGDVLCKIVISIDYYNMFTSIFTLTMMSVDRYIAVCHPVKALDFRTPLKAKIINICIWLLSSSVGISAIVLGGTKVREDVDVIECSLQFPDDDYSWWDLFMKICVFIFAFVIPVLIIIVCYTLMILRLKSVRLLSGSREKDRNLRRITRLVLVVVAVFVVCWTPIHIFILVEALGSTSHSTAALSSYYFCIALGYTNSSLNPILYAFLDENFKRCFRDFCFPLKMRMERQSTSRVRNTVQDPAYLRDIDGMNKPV

On to “c(Tyr-Sar-(p-NO2-Phe)-Leu-Arg-NMA-D(Asp)-D(Arg)-SSa-D(Lys))”, for which the not cleaved result in data set [1] is listed as “no sign of degradation over the 120 minute assay”.

As to “c(Tyr-Sar(p-NO2-Phe)-Leu-Arg-D(Arg)-SSa-Arg-D(Asp)-Lys”, the not cleaved entry in data set [1] is reported as “no sign of degradation over the 120 minute assay”.

Take Tyr-Gly-Gly-Phe-Leu-Arg-Arg: the fragment found result in data set [2] is given as “DYN A (1-6), 15 min”.

With `CC(C)C[C@H](NC(=O)[C@H](Cc1ccc([N+](=O)[O-])cc1)NC(=O)CN(C)C(=O)[C@@H](N)Cc1ccc(O)cc1)C(=O)N[C@@H](CCCNC(=N)N)C(=O)N(C)[C@@H](CCCNC(=N)N)C(=O)N[C@@H]1CC(=O)NCC(C)(C)SSC[C@H](C(=O)N[C@H](CCCCN)C(N)=O)NC(=O)[C@@H](CCCNC(=N)N)NC1=O` [CP14, c(Tyr-Sar-(p-NO2-Phe)-Leu-Arg-NMA-D(Asp)-D(Arg)-SSa-D(Lys))] (H-Y[Sar][Phe(4-NO2)]LR[NMeR][dD][dR][dC][dK]-NH2; linker 7-9 via NHCH2CMe2S), the half-life at 100 uM in data set [3] is 70.8 min; in data set [7], 2320 min. In addition, the EC50 (in general, the concentration needed to bring the measured effect to its halfway point) in data set [4] was 4.4 nM; in data set [5], more than 10000 nM. In addition, in data set [6], the “Degradation in cAMP assay buffer” value is reported as “no degradation”. Further, the Degradation in trypsin result in data set [7] is listed as “no sign of degradation”.

With `CC(C)C[C@H](NC(=O)[C@H](Cc1ccc(Cl)cc1)NC(=O)CN(C)C(=O)[C@@H](N)Cc1ccc(O)cc1)C(=O)N[C@@H](CCCNC(=N)N)C(=O)N[C@H](CCCNC(=N)N)C(=O)N[C@H]1CSSC(C)(C)CNC(=O)C[C@@H](C(N)=O)NC1=O` [CP9, c(Tyr-Sar-(p-Cl-Phe)-Leu-Arg-D(Arg)-SSa-Asp)] (H-Y[Sar][Phe(4-Cl)]LR[dR]CD-NH2; linker 7-8 via X1), the half-life was found to be 85.5 min in data set [3] and 49.8 min in data set [7]. For the same compound, the EC50 was more than 10000 nM in data set [8], 1.8 nM in data set [4] and more than 10000 nM in data set [5]. Further, the “Degradation in cAMP assay buffer” value in data set [6] is on record as “no degradation”.

Regarding “Tyr-Gly-Gly-Phe-Leu-Arg-Arg-Ile-Arg-Pro-Lys”, in data set [2], the fragment found result was “DYN A (1-7), first_seen, initial time point samples; also recorded: DYN A (1-6), first_seen, initial time point samples” and the not cleaved result is recorded as “DYN 1-9 was not observed upon trypsin digestion”.

Consider `CC(C)C[C@H](NC(=O)[C@H](Cc1ccc([N+](=O)[O-])cc1)NC(=O)CN(C)C(=O)[C@@H](N)Cc1ccc(O)cc1)C(=O)N[C@@H](CCCNC(=N)N)C(=O)N[C@H](CCCNC(=N)N)C(=O)N[C@@H]1CSSC(C)(C)CNC(=O)C[C@H](C(=O)N[C@@H](CCCCN)C(N)=O)NC(=O)[C@H](CCCNC(=N)N)NC1=O` [CP13, c(Tyr-Sar(p-NO2-Phe)-Leu-Arg-D(Arg)-SSa-Arg-D(Asp)-Lys] (H-Y[Sar][Phe(4-NO2)]LR[dR][dC]R[dD]K-NH2; linker 7-9 via X1), for which the half-life at 100 uM turned out to be 63.3 min in data set [3] and 1410 min in data set [7]. In addition, the values for the EC50 in data set [4] and in data set [5] were 16 nM and more than 10000 nM, respectively. Also, the “Degradation in cAMP assay buffer” value in data set [6] is given as “no degradation”. Moreover, the Degradation in trypsin result in data set [7] is on record as “no sign of degradation”.

Regarding `CC1(C)CNC(=O)C[C@H](NC(=O)[C@@H](N)Cc2ccc(O)cc2)C(=O)NCC(=O)N[C@@H](Cc2ccccc2)C(=O)NC(C(=O)N[C@@H](CCCNC(=N)N)C(=O)N[C@@H](CCCNC(=N)N)C(N)=O)CSS1` (stereo partly drawn) [CP2, c(Tyr-Asp-Gly-Phe-SSa-Arg-Arg)] (H-YDGF[ξC]RR-NH2; linker 2-5 via NHCH2CMe2S; N-terminus assumed), the half-life in data set [3] and in data set [7] was less than 0.01 min in each case. In addition, the EC50 worked out at 1380 nM in data set [8], 320 nM in data set [4] and 2330 nM in data set [5].

As for “c(Tyr-Gly-Gly-Phe-D(Asp)-Arg-SSa-Ile-Arg-Pro-Lys)”, in data set [2], the not cleaved entry is recorded as “Stable up to 6 h; more than 90% remained after 360 minutes”.
